Columns and labels:
HeLa cells [1] = test: cells; parameters: MTS cell viability assay, absorbance at 490 nm; conditions: Homo sapiens, 18 h; read-out: IC50 concentration in (µM), HeLa
Procedure: MTS assay (CellTiter 96® AQueous One Solution Cell Proliferation Assay (Promega, USA) was used to determine the cell viability. HeLa and HEK293 cells (20,000 cells in each well) were plated in 96 well plate and treated with 6e, 6j, and 6n varying concentrations of the compounds ranging from 10 nM to 50 μM for 18 h. The assay was carried out according to the manufacturer’s instructions. Finally, the plate was read in Varioskan™ LUX multimode microplate reader (Thermo Fisher Scientific) at 490 nm. We investigated the effect of nine cATC derivatives (6b/6d/6e/6f/6i/6j/6k/6l/6n) on cell viability in cancer cell-line HeLa and transformed normal cell-line HEK293. We treated cells with the varying concentrations of the compounds ranging from 10 nM to 50 μM for 18 h (optimized). […] Cell scavenging for 6e and 6j at 50 μM was 84.74% and 89.87%, respectively, and for 6n at 30 μM it was 75.43%. Corresponding cell viability was 15.25%, 10.13% and, 24.56%, respectively. Fluorescence signal became visible inside cells at 12 μM, 12 μM, and 20 μM concentrations for 6e, 6j, and 6n, respectively (SM, Figs. S31, S34, S37). […] Scavenging activity for 6e, 6j, and 6n was 61.1%, 18.23%, and 30.1%, respectively at 30 μM concentration (Fig. 5D–F). Corresponding cell viability was 38.82%, 81.76%, and 69.86%, respectively. The IC50 value of all the compounds was at the micromolar (μM) level which is shown in the Supplemental Material (Table S9 and S10).

HeLa cells [2] = test: MTS cell viability assay in HeLa; assay type: cell-based; conditions: 10 nM to 50 μM, 18 h
Procedure: We investigated the effect of nine cATC derivatives (6b/6d/6e/6f/6i/6j/6k/6l/6n) on cell viability in cancer cell-line HeLa and transformed normal cell-line HEK293. We treated cells with the varying concentrations of the compounds ranging from 10 nM to 50 μM for 18 h (optimized).
MTS assay (CellTiter 96® AQueous One Solution Cell Proliferation Assay (Promega, USA) was used to determine the cell viability. HeLa and HEK293 cells (20,000 cells in each well) were plated in 96 well plate and treated with 6e, 6j, and 6n varying concentrations of the compounds ranging from 10 nM to 50 μM for 18 h. The assay was carried out according to the manufacturer’s instructions. Finally, the plate was read in Varioskan™ LUX multimode microplate reader (Thermo Fisher Scientific) at 490 nm.
Cell scavenging activity was calculated using the following formula:
OD(490nm) (control) – OD(490nm) (Test)/OD(490nm) (control) × 100%
Cell Viability of the cell was calculated using the following formula: […]

ct-DNA duplex = test: Circular dichroism of ct-DNA with cATC derivatives; assay type: binding; conditions: increasing concentration of cATC derivatives
Description: Further, we examined the effect of cATC derivatives (6a/6e/6j/6n) on the ct-DNA duplex structure by circular dichroism (CD) studies. We recorded the CD spectra of ct-DNA with the increasing concentration of cATC derivatives (SM, Fig. S24). […] Next, we examined the binding site of cATC derivative (ligand) at the DNA duplex structure by using AutoDock-Vina, a well-reported computational docking program. We performed docking of cATC derivatives (6a/6d/6k) crystal structure (ligand) with dodecamer DNA duplex crystal structure (PDB ID-1BNA) as the receptor. Our docking results strongly support the non-covalent interaction of cATC derivatives (6a/6d/6k) at the DNA-minor groove with the binding affinity ~7.0 Kcal/mole, mostly hydrophobic interactions (SM, Figs. S25–7, Table S8). […] Overall, cATC derivatives non-covalently bind with DNA duplex through the non-intercalative mode without affecting the native duplex structure. Next, we examined the DNA binding affinity of cATC derivatives (6e/6j/6n) by gel-electrophoresis. The different concentrations of human genomic DNA were treated with EtBr (control) and cATC derivatives (6e/6j/6n) and ran on 1% agarose gel (SM, Fig. S28A–D). […] Further, the Microscale thermophoresis (MST) technique was used to calculate the binding affinities of cATC derivatives (6e/6j/6n) (20 µM) with varying concentrations of human genomic DNA (40 fM to 75 pM).

SMILES	melting point [°C]	IC50 (HeLa cells [1]) [µM]	effect on HeLa cell proliferation (HeLa cells [2])	effect on B-type duplex CD spectrum of ct-DNA (ct-DNA duplex)
CCCCCCCCN1[c+]2cccccc2N(CCc2ccccc2)C(C(=O)[O-])C1c1ccc(F)cc1 (stereo not drawn) [Compound 6k, N-octyl-N-phenylethyl 4-fluorophenyl troponyl dihydrapyrazinium carboxylate]	123 to 125	–	–	–
COc1cc(OC)cc(C2C(C(=O)[O-])N(CCc3ccccc3)c3ccccc[c+]3N2Cc2ccccc2)c1 (stereo not drawn) [Compound 6b]	–	> 50	no or minimal effect	–
O=C([O-])C1C(c2ccc(O)cc2)N(C2CCCCC2)[c+]2cccccc2N1CCc1ccccc1 (stereo not drawn) [Compound 6l]	–	> 50	no or minimal effect	–
O=C([O-])C1C(C=Cc2ccccc2)N(Cc2ccccc2)[c+]2cccccc2N1CCc1ccccc1 (stereo not drawn) [Compound 6n]	118 to 120	–	–	–
O=C([O-])C1C(c2ccccc2)N(Cc2ccccc2)[c+]2cccccc2N1CCc1ccccc1 (stereo not drawn) [Compound 6a, N-benzyl-N-phenylethyl phenyl troponyl dihydropyrazinium carboxylate]	135 to 140	–	–	almost remained unchanged
C#CCN1[c+]2cccccc2N(CCc2ccccc2)C(C(=O)[O-])C1c1ccccc1 (stereo not drawn) [Compound 6i]	122 to 125	> 50	no or minimal effect	–
O=C([O-])C1C(c2ccc([N+](=O)[O-])cc2)N(Cc2ccccc2)[c+]2cccccc2N1CCc1ccccc1 (stereo not drawn) [Compound 6d, N-Benzyl-N-phenylethyl 4-nitrophenyl troponyl dihydrapyrazine carboxylic acid]	–	> 50	no or minimal effect	–
N#Cc1ccc(C2C(C(=O)[O-])N(CCc3ccccc3)c3ccccc[c+]3N2Cc2ccccc2)cc1 (stereo not drawn) [Compound 6f]	–	> 50	no or minimal effect	–

Source: article PMC9814901, “One-pot synthesis of cyclic-aminotropiminium carboxylate derivatives with DNA binding and anticancer properties” (Communications Chemistry, 2022)
